In US20260306639A1, “DEGRADER FOR DECOMPOSING CMET PROTEIN, AND PHARMACEUTICAL COMPOSITION COMPRISING SAME” (INNOCURE THERAPEUTICS, INC., priority 2022, published 2026) one finds DC50 data, which are given here for 28 compounds.

SMILES strings stand for the structures.

One assay relates to c-MET. Nature of the assay: c-MET protein degradation (Simple Western), EBC-1 cells. The assay is classed as cell-based, human. As to conditions: EBC-1 lung cancer cells, c-MET overexpressing; 48 hours. On the procedure:
(§1) In order to assess the resolution of the compound of the present invention for c-MET expressed in cells, cells were dispensed in a 12-well plate at a concentration of 2×10^5 cells/well, and then gastric cancer cell lines were treated with samples for 24 hours and lung cancer cell lines were treated for 48 hours. Cell lysates were collected using a scraper on ice, centrifuged at 4° C. 15,000 rpm for 30 min to obtain a protein-containing supernatant. Protein expression was then measured using the Simple Western Automated Western Blot System Abby instrument using 3 μg of protein for each sample. SDS and heat-induced denaturation proteins were separated by molecular weight, attached to capillary, reacted with anti-c-MET or anti-GAPDH antibodies, which are primary antibodies, and then reacted with HRP-conjugated secondary antibodies, and analyzed the protein expression signal with compass software. Protein expression was normalized based on the expression value of GAPDH, and protein development in each sample was measured as a percentage (%) based on 100% of samples treated with 0.1% DMSO carriers, and DC50 (concentration of a compound where 50% protein inhibition is achieved) was calculated from the change in protein expression amount due to compound treatment.
In the case of `Cc1nn(C2CCC(=O)NC2=O)c(=O)c2ccc(N3CCN(C(=O)C4CN(CC(=O)N5CCC(COc6cnc(-c7cccc(Cn8nc(-c9cccc(C#N)c9)ccc8=O)c7)nc6)CC5)C4)CC3)cc12` (stereo not shown) [ICT-0001257], the DC50 (commonly the concentration at which degradation of the target reaches its halfway point) fell in the range of 100 to 1000 nM.
Compound `N#Cc1cccc(-c2ccc(=O)n(Cc3cccc(-c4ncc(OCC5CCN(CCN6CCN(c7ccc8c(=O)n(C9CCC(=O)NC9=O)ncc8c7)CC6)CC5)cn4)c3)n2)c1` (stereo not shown) [ICT-0001276, 3-(1-{[3-(5-{[1-(2-{4-[2-(2,6-dioxopiperidin-3-yl)-1-oxo-1,2-dihydropetalazine-6-yl]piperazine-1-il}ethyl)piperidine-4-il]methoxy}pyrimidine-2-yl)phenyl]methyl}-6-oxo-1,6-dihydropyridazine-3-yl)benzonitrile] returned a DC50 of over 1000 nM.
Same read-out and setting: then `Cc1nn(C2CCC(=O)NC2=O)c(=O)c2cc(N3CCN(CCN4CCC(COc5cnc(-c6cccc(Cn7nc(-c8cccc(C#N)c8)ccc7=O)c6)nc5)CC4)CC3)ccc12` (stereo not shown) [ICT-0001278, 3-(1-{[3-(5-{[1-(2-{4-[3-(2,6-dioxopiperidin-3-yl)-1-methyl-4-oxo-3,4-dihydropthalazine-6-yl]piperazine-1-yl}ethyl)piperidine-4-day]methoxy}pyrimidine-2-yl)phenyl]methyl}6-oxo-1,6-dihydropyridazine-3-yl)benzonitrile], with over 1000 nM.
In turn, `N#Cc1cccc(-c2ccc(=O)n(Cc3cccc(-c4ncc(OCC5CCN(CC(=O)N6CCC(CN7CCN(c8ccc(NC9CCC(=O)NC9=O)cc8F)CC7)CC6)CC5)cn4)c3)n2)c1` (stereo not shown) [ICT-0001447, 3-(1-{[3-(5-{[1-(2-{4-[(4-{4-[(2,6-dioxopiperidin-3-yl)amino]-2-fluorophenyl}piperazine-1-yl)methyl]piperidine-1-yl}-2-oxoethyl)piperidine-4-yl]methoxy}pyrimidine-2-yl)phenyl]methyl}-6-oxo-1,6-dihydropyridazine-3-yl)benzonitrile] gave a DC50 of under 100 nM.
`N#Cc1cccc(-c2ccc(=O)n(Cc3cccc(-c4ncc(OCC5CCN(CC(=O)N6CCN(CC7CCN(c8ccc(NC9CCC(=O)NC9=O)cc8F)CC7)CC6)CC5)cn4)c3)n2)c1` (stereo not shown) [ICT-0001468, 3-(1-{[3-(5-{[1-(2-{4-[(1-{4-[(2,6-dioxopiperidin-3-yl)amino]-2-fluorophenyl}piperidine-4-yl)methyl]piperazine-1-yl}-2-oxoethyl)piperidine-4-yl]methoxy}pyrimidine-2-yl)phenyl]methyl}-6-oxo-1,6-dihydropyridazine-3-yl)benzonitrile] registered a DC50 of under 100 nM.

Another assay relates to c-MET. Nature of the assay: c-MET protein degradation (Simple Western), MKN-45 cells. As to conditions: MKN-45 gastric cancer cells, c-MET overexpressing; 24 hours. It counts as cell-based, human. On the procedure: as §1
On to `Cc1nn(C2CCC(=O)NC2=O)c(=O)c2ccc(N3CCN(C(=O)CCN4CCC(COc5cnc(-c6cccc(Cn7nc(-c8cccc(C#N)c8)ccc7=O)c6)nc5)CC4)CC3)cc12` (stereo not shown) [ICT-0001224], for which the 50% degradation concentration (DC50) was under 100 nM.
As to `Cc1nn(C2CCC(=O)NC2=O)c(=O)c2cc(N3CCN(C(=O)CCN4CCC(COc5cnc(-c6cccc(Cn7nc(-c8cccc(C#N)c8)ccc7=O)c6)nc5)CC4)CC3)ccc12` (stereo not shown) [ICT-0001225], the DC50 was under 100 nM.
The compound `N#Cc1cccc(-c2ccc(=O)n(Cc3cccc(-c4ncc(OCC5CCN(CCCC(=O)N6CCN(c7ccc8c(=O)n(C9CCC(=O)NC9=O)ncc8c7)CC6)CC5)cn4)c3)n2)c1` (stereo not shown) [ICT-0001226, 3-(1-(3-(5-((1-(4-(4-(2-(2,6-dioxopiperidine-3-yl)-1-oxo-1,2-dihydropetalazine-6-yl)piperazine-1-il)-4-oxobutyl)piperidine-4-il)methoxy)pyrimidine-2-yl)benzyl)-6-oxo-1,6-dihydropyridazine-3-yl)benzonitrile] came in with a DC50 of 100 to 1000 nM.
`Cc1nn(C2CCC(=O)NC2=O)c(=O)c2ccc(N3CCN(C(=O)CCCN4CCC(COc5cnc(-c6cccc(Cn7nc(-c8cccc(C#N)c8)ccc7=O)c6)nc5)CC4)CC3)cc12` (stereo not shown) [ICT-0001227, 3-(1-(3-(5-((1-(4-(4-(2-(2,6-dioxopiperidin-3-yl)-4-methyl-1-oxo-1,2-dihydropetalazine-6-yl)piperazine-1-yl)4-oxobutyl)piperidine-4-yl)methoxy)pyrimidine-2-yl)benzyl)6-oxo-1,6-dihydropyridazine-3-yl)benzonitrile] returned a DC50 of 100 to 1000 nM.
In turn, `Cc1nn(C2CCC(=O)NC2=O)c(=O)c2cc(N3CCN(C(=O)CCCN4CCC(COc5cnc(-c6cccc(Cn7nc(-c8cccc(C#N)c8)ccc7=O)c6)nc5)CC4)CC3)ccc12` (stereo not shown) [ICT-0001228] had a DC50 of under 100 nM.
In turn, `Cc1nn(C2CCC(=O)NC2=O)c(=O)c2cc(N3CCC(N4CCN(C(=O)CN5CCC(COc6cnc(-c7cccc(Cn8nc(-c9cccc(C#N)c9)ccc8=O)c7)nc6)CC5)CC4)CC3)ccc12` (stereo not shown) [ICT-0001233] had a DC50 of under 100 nM.
The same measure, in the same setting: then `Cc1nn(C2CCC(=O)NC2=O)c(=O)c2cc(N3CCC(CN4CCN(C(=O)CN5CCC(COc6cnc(-c7cccc(Cn8nc(-c9cccc(C#N)c9)ccc8=O)c7)nc6)CC5)CC4)CC3)ccc12` (stereo not shown) [ICT-0001234], with over 1000 nM; and `Cc1nn(C2CCC(=O)NC2=O)c(=O)c2ccc(N3CCN(CC4CN(C(=O)CN5CCC(COc6cnc(-c7cccc(Cn8nc(-c9cccc(C#N)c9)ccc8=O)c7)nc6)CC5)C4)CC3)cc12` (stereo not shown) [ICT-0001235], with under 100 nM.
Same read-out and setting: for `Cc1nn(C2CCC(=O)NC2=O)c(=O)c2ccc(N3CCC(CN4CCN(C(=O)CN5CCC(COc6cnc(-c7cccc(Cn8nc(-c9cccc(C#N)c9)ccc8=O)c7)nc6)CC5)CC4)CC3)cc12` (stereo not shown) [ICT-0001236] the value was under 100 nM; for `Cc1nn(C2CCC(=O)NC2=O)c(=O)c2ccc(N3CCN(C4CCN(C(=O)CN5CCC(COc6cnc(-c7cccc(Cn8nc(-c9cccc(C#N)c9)ccc8=O)c7)nc6)CC5)CC4)CC3)cc12` (stereo not shown) [ICT-0001237], under 100 nM.
On the same count and under the same terms, then `Cc1nn(C2CCC(=O)NC2=O)c(=O)c2cc(N3CCC(C(=O)NCCCNC(=O)CN4CCC(COc5cnc(-c6cccc(Cn7nc(-c8cccc(C#N)c8)ccc7=O)c6)nc5)CC4)CC3)ccc12` (stereo not shown) [ICT-0001238], with over 1000 nM; and `Cc1nn(C2CCC(=O)NC2=O)c(=O)c2cc(N3CCC(CN4CCN(CC(=O)N5CCC(COc6cnc(-c7cccc(Cn8nc(-c9cccc(C#N)c9)ccc8=O)c7)nc6)CC5)CC4)CC3)ccc12` (stereo not shown) [ICT-0001239], with under 100 nM.
Compound `Cc1nn(C2CCC(=O)NC2=O)c(=O)c2ccc(N3CCN(c4ccc(NCC(=O)N5CCC(COc6cnc(-c7cccc(Cn8nc(-c9cccc(C#N)c9)ccc8=O)c7)nc6)CC5)cc4)CC3)cc12` (stereo not shown) [ICT-0001240, 3-(1-(3-(5-((1-((4-(4-(2-(2,6-dioxopiperidin-3-yl)-4-methyl-1-oxo-1,2-dihydropthalazine-6-yl)piperazine-1-yl)phenyl)glycyl)piperidine-4-il)methoxy)pyrimidine-2-yl)benzyl)6-oxo-1,6-dihydropyridazine-3-yl)benzonitrile] gave a DC50 of 100 to 1000 nM.
On the same count and under the same terms, then `Cc1nn(C2CCC(=O)NC2=O)c(=O)c2ccc(N3CCN(C(=O)CCCCN4CCC(COc5cnc(-c6cccc(Cn7nc(-c8cccc(C#N)c8)ccc7=O)c6)nc5)CC4)CC3)cc12` (stereo not shown) [ICT-0001250], with 100 to 1000 nM.
As to `Cc1nn(C2CCC(=O)NC2=O)c(=O)c2cc(N3CCN(C(=O)CCCCN4CCC(COc5cnc(-c6cccc(Cn7nc(-c8cccc(C#N)c8)ccc7=O)c6)nc5)CC4)CC3)ccc12` (stereo not shown) [ICT-0001251], the DC50 is under 100 nM.
Same read-out and setting: then `N#Cc1cccc(-c2ccc(=O)n(Cc3cccc(-c4ncc(OCC5CCN(CCCCC(=O)N6CCN(c7ccc8c(=O)n(C9CCC(=O)NC9=O)ncc8c7)CC6)CC5)cn4)c3)n2)c1` (stereo not shown) [ICT-0001252], with under 100 nM; and `Cc1nn(C2CCC(=O)NC2=O)c(=O)c2ccc(N3CCN(CC4CN(CC(=O)N5CCC(COc6cnc(-c7cccc(Cn8nc(-c9cccc(C#N)c9)ccc8=O)c7)nc6)CC5)C4)CC3)cc12` (stereo not shown) [ICT-0001253], with under 100 nM.
Consider `Cc1nn(C2CCC(=O)NC2=O)c(=O)c2ccc(N3CCN(C[C@H]4CCN(CC(=O)N5CCC(COc6cnc(-c7cccc(Cn8nc(-c9cccc(C#N)c9)ccc8=O)c7)nc6)CC5)CO4)CC3)cc12` (stereo partly shown) [ICT-0001254], for which the DC50 is 100 to 1000 nM.
On the same count and under the same terms, for `Cc1nn(C2CCC(=O)NC2=O)c(=O)c2ccc(N3CCN(C4CCN(CC(=O)N5CCC(COc6cnc(-c7cccc(Cn8nc(-c9cccc(C#N)c9)ccc8=O)c7)nc6)CC5)CC4)CC3)cc12` (stereo not shown) [ICT-0001255] the value was under 100 nM; for `Cc1nn(C2CCC(=O)NC2=O)c(=O)c2ccc(N3CCN(CC4CCN(CC(=O)N5CCC(COc6cnc(-c7cccc(Cn8nc(-c9cccc(C#N)c9)ccc8=O)c7)nc6)CC5)CC4)CC3)cc12` (stereo not shown) [ICT-0001256], under 100 nM; for `Cc1nn(C2CCC(=O)NC2=O)c(=O)c2ccc(N3CCN(C(=O)C4CN(CC(=O)N5CCC(COc6cnc(-c7cccc(Cn8nc(-c9cccc(C#N)c9)ccc8=O)c7)nc6)CC5)C4)CC3)cc12` (stereo not shown) [ICT-0001257], under 100 nM.
Still for that read-out and setting: for `Cc1nn(C2CCC(=O)NC2=O)c(=O)c2ccc(N3CCN(C[C@@H]4CN(C(=O)CN5CCC(COc6cnc(-c7cccc(Cn8nc(-c9cccc(C#N)c9)ccc8=O)c7)nc6)CC5)CCO4)CC3)cc12` (stereo partly shown) [ICT-0001258] the value was under 100 nM; for `Cc1nn(C2CCC(=O)NC2=O)c(=O)c2cc(N3CCN(c4ccc(NCC(=O)N5CCC(COc6cnc(-c7cccc(Cn8nc(-c9cccc(C#N)c9)ccc8=O)c7)nc6)CC5)cc4)CC3)ccc12` (stereo not shown) [ICT-0001262, 3-(1-(3-(5-((1-((4-(4-(3-(2,6-dioxopiperidin-3-yl)-1-methyl-4-oxo-3,4-dihydropthalazine-6-yl)piperazine-1-yl)phenyl)glycy)piperidine-4-il)methoxy)pyrimidine-2-yl)benzyl)6-oxo-1,6-dihydropyridazine-3-yl)benzonitrile], under 100 nM.
Still for that read-out and setting: for `Cc1nn(C2CCC(=O)NC2=O)c(=O)c2cc(N3CCC(N4CCN(CC(=O)N5CCC(COc6cnc(-c7cccc(Cn8nc(-c9cccc(C#N)c9)ccc8=O)c7)nc6)CC5)CC4)CC3)ccc12` (stereo not shown) [ICT-0001270] the value was under 100 nM.
The compound `N#Cc1cccc(-c2ccc(=O)n(Cc3cccc(-c4ncc(OCC5CCN(CCN6CCN(c7ccc8c(=O)n(C9CCC(=O)NC9=O)ncc8c7)CC6)CC5)cn4)c3)n2)c1` (stereo not shown) [ICT-0001276, 3-(1-{[3-(5-{[1-(2-{4-[2-(2,6-dioxopiperidin-3-yl)-1-oxo-1,2-dihydropetalazine-6-yl]piperazine-1-il}ethyl)piperidine-4-il]methoxy}pyrimidine-2-yl)phenyl]methyl}-6-oxo-1,6-dihydropyridazine-3-yl)benzonitrile] had a 50% degradation concentration (DC50) of under 100 nM.
Same read-out and setting: then `Cc1nn(C2CCC(=O)NC2=O)c(=O)c2cc(N3CCN(CCN4CCC(COc5cnc(-c6cccc(Cn7nc(-c8cccc(C#N)c8)ccc7=O)c6)nc5)CC4)CC3)ccc12` (stereo not shown) [ICT-0001278, 3-(1-{[3-(5-{[1-(2-{4-[3-(2,6-dioxopiperidin-3-yl)-1-methyl-4-oxo-3,4-dihydropthalazine-6-yl]piperazine-1-yl}ethyl)piperidine-4-day]methoxy}pyrimidine-2-yl)phenyl]methyl}6-oxo-1,6-dihydropyridazine-3-yl)benzonitrile], with 100 to 1000 nM.
